Here are results for 32 compounds from ChEMBL document CHEMBL1147529, “Discovery and optimization of 2-aryl oxazolo-pyrimidines as adenosine kinase inhibitors using liquid phase parallel synthesis” (Bioorg Med Chem Lett, 2004).

The structures appear in SMILES notation.

A word on the IC50: it is the point on the concentration scale where inhibition reaches its midpoint. A lower IC50 goes with greater potency in that assay.

The target in the assay is Adenosine kinase (Homo sapiens, UniProt P55263). The experiment in a line: Inhibitory activity against human adenosine kinase expressed in Escherichia coli.
Sequence of Adenosine kinase (P55263 whole entry): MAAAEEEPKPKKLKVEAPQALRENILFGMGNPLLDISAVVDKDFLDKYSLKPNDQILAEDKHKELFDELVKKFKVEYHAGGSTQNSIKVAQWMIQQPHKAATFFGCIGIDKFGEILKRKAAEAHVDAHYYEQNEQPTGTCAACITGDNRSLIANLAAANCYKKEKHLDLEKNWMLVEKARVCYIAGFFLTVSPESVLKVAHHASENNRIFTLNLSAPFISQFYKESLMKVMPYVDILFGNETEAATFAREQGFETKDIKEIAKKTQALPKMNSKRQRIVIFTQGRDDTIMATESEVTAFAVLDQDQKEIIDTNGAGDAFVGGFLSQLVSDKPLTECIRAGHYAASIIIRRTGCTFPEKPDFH
The compound `c1ccc(CN2C[C@@H]3CCCN(c4ncnc5oc(-c6ccccc6)nc45)[C@@H]3C2)cc1` gave an IC50 of 1000 nM.

With `O=C(Nc1ccc(-c2nc3c(N4CC5CCN(Cc6ccccc6)C5C4)ncnc3o2)cc1)C1CC1` (configuration not stated), half-maximal inhibition (IC50) was put at 30 nM.

`O=C(Nc1cccc(-c2nc3c(N4CC5CCN(Cc6ccccc6)C5C4)ncnc3o2)c1)C1CC1` (configuration not stated) returned an IC50 of 60 nM.

In turn, `O=C(Nc1ccc(-c2nc3c(N4CC5CCN(Cc6ccccc6)C5C4)ncnc3o2)cc1)c1ccccc1` (configuration not stated) returned an IC50 of 70 nM.

Turning to `COCC(=O)Nc1cccc(-c2nc3c(N4CC5CCN(Cc6ccccc6)C5C4)ncnc3o2)c1` (configuration not stated), the IC50 amounted to 40 nM.

As to `Clc1ccc(-c2nc3c(N4CC5CCN(Cc6ccccc6)C5C4)ncnc3o2)cn1` (configuration not stated), the IC50 worked out at 70 nM.

`CCCCNc1ncnc2oc(-c3ccccc3)nc12`: the IC50 was over 10000 nM.

Consider `c1ccc(CN2CC[C@@H]3CN(c4ncnc5oc(-c6ccccc6)nc45)C[C@@H]32)cc1`, for which half-maximal inhibition (IC50) required 120 nM.

Turning to `O=C(Nc1cccc(-c2nc3c(N4CC5CCN(Cc6ccccc6)C5C4)ncnc3o2)c1)c1ccc(F)cc1` (configuration not stated), the IC50 turned out to be 200 nM.

In the case of `O=C(Nc1cccc(-c2nc3c(N4CC5CCN(Cc6ccccc6)C5C4)ncnc3o2)c1)c1ccc(C(F)(F)F)cc1` (configuration not stated), the IC50 is over 10000 nM.

Compound `COCCNc1ncnc2oc(-c3ccccc3)nc12` yielded an IC50 of over 10000 nM.

Compound `c1ccc(CN2CCN(c3ncnc4oc(-c5ccccc5)nc34)CC2)cc1` returned an IC50 of over 10000 nM.

As for `c1ccc(CN2CCC3CN(c4ncnc5oc(-c6ccccc6)nc45)CC32)cc1` (configuration not stated), the midpoint of inhibition, the IC50, lay at 200 nM.

As to `Fc1ccc(-c2ccc(-c3nc4c(N5CC6CCN(Cc7ccccc7)C6C5)ncnc4o3)cc2)cc1` (configuration not stated), the 50% inhibitory concentration (IC50) was over 10000 nM.

`Brc1ccc(-c2nc3c(N4CC5CCN(Cc6ccccc6)C5C4)ncnc3o2)cc1` (configuration not stated): the IC50 turned out to be 240 nM.

In turn, `O=C(Cc1ccccc1)Nc1ccc(-c2nc3c(N4CC5CCN(Cc6ccccc6)C5C4)ncnc3o2)cc1` (configuration not stated) gave an IC50 of 70 nM.

As for `Nc1ccc(-c2nc3c(N4CC5CCN(Cc6ccccc6)C5C4)ncnc3o2)cc1` (configuration not stated), the IC50 amounted to 50 nM.

Consider `CN(C)c1ccc(-c2nc3c(N4CC5CCN(Cc6ccccc6)C5C4)ncnc3o2)cn1` (configuration not stated), for which the IC50 was determined as 10 nM.

`O=C(Nc1ccc(-c2nc3c(N4CC5CCN(Cc6ccccc6)C5C4)ncnc3o2)cc1)c1ccc(F)cc1` (configuration not stated): the IC50 worked out at 130 nM.

`c1ccc(CCCNc2ncnc3oc(-c4ccccc4)nc23)cc1` showed an IC50 of 230 nM.

The compound `Fc1ccc(CN2CCCN(c3ncnc4oc(-c5ccccc5)nc34)CC2)cc1` came in with an IC50 of over 1000 nM.

Turning to `Brc1cccc(-c2nc3c(N4CC5CCN(Cc6ccccc6)C5C4)ncnc3o2)c1` (configuration not stated), the IC50 was found to be 260 nM.

Take `O=C(Nc1ccc(-c2nc3c(N4CC5CCN(Cc6ccccc6)C5C4)ncnc3o2)cc1)c1ccc(C(F)(F)F)cc1` (configuration not stated): the IC50 was over 10000 nM.

Compound `COCC(=O)Nc1ccc(-c2nc3c(N4CC5CCN(Cc6ccccc6)C5C4)ncnc3o2)cc1` (configuration not stated) displayed an IC50 of 40 nM.

Regarding `c1ccc(CN2CCC3CN(c4ncnc5oc(-c6ccncc6)nc45)CC32)cc1` (configuration not stated), the IC50 is over 1000 nM.

As to `O=C(Cc1ccccc1)Nc1cccc(-c2nc3c(N4CC5CCN(Cc6ccccc6)C5C4)ncnc3o2)c1` (configuration not stated), it took 210 nM to reach half-maximal inhibition (IC50).

In the case of `c1ccc(CN2CCC3CN(c4ncnc5oc(-c6cccnc6)nc45)CC32)cc1` (configuration not stated), inhibition was half-maximal at 130 nM (IC50).

In turn, `O=C(Nc1cccc(-c2nc3c(N4CC5CCN(Cc6ccccc6)C5C4)ncnc3o2)c1)c1ccccc1` (configuration not stated) showed an IC50 of 90 nM.

`c1ccc(CN2CCC3CN(c4ncnc5oc(-c6ccc(-c7cccs7)cc6)nc45)CC32)cc1` (configuration not stated) displayed an IC50 of 90 nM.

Take `CN(CCCNc1ncnc2oc(-c3ccccc3)nc12)c1ccccc1`: the IC50 is 270 nM.

Compound `c1ccc(CN2CC3CN(c4ncnc5oc(-c6ccccc6)nc45)CC3C2)cc1` (configuration not stated) gave an IC50 of over 10000 nM.

As for `Nc1ncnc2nc(-c3ccc(N4CCOCC4)nc3)cc(-c3cccc(Br)c3)c12`, the midpoint of inhibition, the IC50, lay at 10 nM.
